Laboratory results: the NIST ThermoML archive (doi:10.1016/j.jct.2015.08.014)
± gives the expanded uncertainty stated by the source.

Experiment: xn = mol fraction of the nth substance listed
Settings: 100 kPa, Liquid; for electrical conductivity: Alternating current cell with electrodes; for mass density: Vibrating tube method; for viscosity: Capillary tube (Ostwald / Ubbelohde) method

CCCC[N+]1(C)CCCC1.N#CN=C=[N-] [1-butyl-1-methylpyrrolidinium dicyanamide] + O=C1CCCO1
Settings	electrical conductivity [S/m]
283.15 K, Frequency=0.008 MHz, x1 = 0.0463	1.17 ± 0.02
283.15 K, Frequency=0.008 MHz, x1 = 0.0987	1.73 ± 0.021
283.15 K, Frequency=0.008 MHz, x1 = 0.1449	1.93 ± 0.02
283.15 K, Frequency=0.008 MHz, x1 = 0.1859	2.028 ± 0.02
283.15 K, Frequency=0.008 MHz, x1 = 0.2493	1.926 ± 0.019
283.15 K, Frequency=0.008 MHz, x1 = 0.3029	1.84 ± 0.019
283.15 K, Frequency=0.008 MHz, x1 = 0.3845	1.66 ± 0.017
283.15 K, Frequency=0.008 MHz, x1 = 0.4985	1.407 ± 0.014
283.15 K, Frequency=0.008 MHz, x1 = 0.6954	1.07 ± 0.01
283.15 K, Frequency=0.008 MHz, x1 = 0.9013	0.849 ± 0.009
283.15 K, Frequency=0.008 MHz, x1 = 1	0.786 ± 0.008
283.15 K, Frequency=0.00857143 MHz, x1 = 0.0463	1.17 ± 0.02
283.15 K, Frequency=0.00857143 MHz, x1 = 0.0987	1.73 ± 0.021
283.15 K, Frequency=0.00857143 MHz, x1 = 0.1449	1.93 ± 0.02
283.15 K, Frequency=0.00857143 MHz, x1 = 0.1859	2.028 ± 0.02
283.15 K, Frequency=0.00857143 MHz, x1 = 0.2493	1.926 ± 0.019
283.15 K, Frequency=0.00857143 MHz, x1 = 0.3029	1.84 ± 0.019
283.15 K, Frequency=0.00857143 MHz, x1 = 0.3845	1.66 ± 0.017
283.15 K, Frequency=0.00857143 MHz, x1 = 0.4985	1.407 ± 0.014
283.15 K, Frequency=0.00857143 MHz, x1 = 0.6954	1.07 ± 0.01
283.15 K, Frequency=0.00857143 MHz, x1 = 0.9013	0.849 ± 0.009
283.15 K, Frequency=0.00857143 MHz, x1 = 1	0.786 ± 0.008
283.15 K, Frequency=0.00892857 MHz, x1 = 0.0463	1.17 ± 0.02
283.15 K, Frequency=0.00892857 MHz, x1 = 0.0987	1.73 ± 0.021
283.15 K, Frequency=0.00892857 MHz, x1 = 0.1449	1.93 ± 0.02
283.15 K, Frequency=0.00892857 MHz, x1 = 0.1859	2.028 ± 0.02
283.15 K, Frequency=0.00892857 MHz, x1 = 0.2493	1.926 ± 0.019
283.15 K, Frequency=0.00892857 MHz, x1 = 0.3029	1.84 ± 0.019
283.15 K, Frequency=0.00892857 MHz, x1 = 0.3845	1.66 ± 0.017
283.15 K, Frequency=0.00892857 MHz, x1 = 0.4985	1.407 ± 0.014
283.15 K, Frequency=0.00892857 MHz, x1 = 0.6954	1.07 ± 0.01
283.15 K, Frequency=0.00892857 MHz, x1 = 0.9013	0.849 ± 0.009
283.15 K, Frequency=0.00892857 MHz, x1 = 1	0.786 ± 0.008
283.15 K, Frequency=0.00961538 MHz, x1 = 0.0463	1.17 ± 0.02
283.15 K, Frequency=0.00961538 MHz, x1 = 0.0987	1.73 ± 0.021
283.15 K, Frequency=0.00961538 MHz, x1 = 0.1449	1.93 ± 0.02
283.15 K, Frequency=0.00961538 MHz, x1 = 0.1859	2.028 ± 0.02
283.15 K, Frequency=0.00961538 MHz, x1 = 0.2493	1.927 ± 0.019
283.15 K, Frequency=0.00961538 MHz, x1 = 0.3029	1.84 ± 0.019
283.15 K, Frequency=0.00961538 MHz, x1 = 0.3845	1.66 ± 0.017
283.15 K, Frequency=0.00961538 MHz, x1 = 0.4985	1.407 ± 0.014
283.15 K, Frequency=0.00961538 MHz, x1 = 0.6954	1.07 ± 0.01
283.15 K, Frequency=0.00961538 MHz, x1 = 0.9013	0.849 ± 0.009
283.15 K, Frequency=0.00961538 MHz, x1 = 1	0.786 ± 0.008
283.15 K, Frequency=0.01 MHz, x1 = 0.0463	1.17 ± 0.02
283.15 K, Frequency=0.01 MHz, x1 = 0.0987	1.73 ± 0.021
283.15 K, Frequency=0.01 MHz, x1 = 0.1449	1.93 ± 0.02
283.15 K, Frequency=0.01 MHz, x1 = 0.1859	2.028 ± 0.02
283.15 K, Frequency=0.01 MHz, x1 = 0.2493	1.927 ± 0.019
283.15 K, Frequency=0.01 MHz, x1 = 0.3029	1.84 ± 0.019
283.15 K, Frequency=0.01 MHz, x1 = 0.3845	1.66 ± 0.017
283.15 K, Frequency=0.01 MHz, x1 = 0.4985	1.407 ± 0.014
283.15 K, Frequency=0.01 MHz, x1 = 0.6954	1.07 ± 0.01
283.15 K, Frequency=0.01 MHz, x1 = 0.9013	0.849 ± 0.009
283.15 K, Frequency=0.01 MHz, x1 = 1	0.786 ± 0.008
293.15 K, Frequency=0.0005 MHz, x1 = 0.0463	1.36 ± 0.024
293.15 K, Frequency=0.0005 MHz, x1 = 0.0987	2.03 ± 0.025
293.15 K, Frequency=0.0005 MHz, x1 = 0.1449	2.31 ± 0.024
293.15 K, Frequency=0.0005 MHz, x1 = 0.1859	2.426 ± 0.024
293.15 K, Frequency=0.0005 MHz, x1 = 0.2493	2.37 ± 0.024
293.15 K, Frequency=0.0005 MHz, x1 = 0.3029	2.28 ± 0.023
293.15 K, Frequency=0.0005 MHz, x1 = 0.3845	2.108 ± 0.021
293.15 K, Frequency=0.0005 MHz, x1 = 0.4985	1.84 ± 0.019
293.15 K, Frequency=0.0005 MHz, x1 = 0.6954	1.45 ± 0.015
293.15 K, Frequency=0.0005 MHz, x1 = 0.9013	1.19 ± 0.012
293.15 K, Frequency=0.0005 MHz, x1 = 1	1.122 ± 0.011
293.15 K, Frequency=0.001 MHz, x1 = 0.0463	1.36 ± 0.024
293.15 K, Frequency=0.001 MHz, x1 = 0.0987	2.04 ± 0.025
293.15 K, Frequency=0.001 MHz, x1 = 0.1449	2.31 ± 0.024
293.15 K, Frequency=0.001 MHz, x1 = 0.1859	2.435 ± 0.024
293.15 K, Frequency=0.001 MHz, x1 = 0.2493	2.37 ± 0.024
293.15 K, Frequency=0.001 MHz, x1 = 0.3029	2.29 ± 0.023
293.15 K, Frequency=0.001 MHz, x1 = 0.3845	2.111 ± 0.021
293.15 K, Frequency=0.001 MHz, x1 = 0.4985	1.84 ± 0.019
293.15 K, Frequency=0.001 MHz, x1 = 0.6954	1.46 ± 0.015
293.15 K, Frequency=0.001 MHz, x1 = 0.9013	1.19 ± 0.012
293.15 K, Frequency=0.001 MHz, x1 = 1	1.122 ± 0.011
293.15 K, Frequency=0.0015 MHz, x1 = 0.0463	1.37 ± 0.024
293.15 K, Frequency=0.0015 MHz, x1 = 0.0987	2.04 ± 0.025
293.15 K, Frequency=0.0015 MHz, x1 = 0.1449	2.31 ± 0.024
293.15 K, Frequency=0.0015 MHz, x1 = 0.1859	2.44 ± 0.024
293.15 K, Frequency=0.0015 MHz, x1 = 0.2493	2.37 ± 0.024

Settings	electrical conductivity, 293.15 K [S/m]	mass density, 283.15 K [kg/m3]	viscosity, 293.15 K [mPa·s]
x1 = 0.0463	1.37 ± 0.024	–	–
x1 = 0.0987	2.05 ± 0.025	1116.14 ± 8.9	3.07 ± 0.07
x1 = 0.1449	2.31 ± 0.024	–	–
x1 = 0.1859	2.45 ± 0.025	1099.19 ± 8.8	4.46 ± 0.1
x1 = 0.2493	2.37 ± 0.024	–	–
x1 = 0.3029	2.29 ± 0.023	1080.61 ± 8.7	6.96 ± 0.16
x1 = 0.3845	2.116 ± 0.021	–	–
x1 = 0.4985	1.84 ± 0.019	1057.34 ± 8.5	13.06 ± 0.29
x1 = 0.6954	1.46 ± 0.015	1040.35 ± 8.3	21.74 ± 0.49
x1 = 0.9013	1.19 ± 0.012	1027.12 ± 8.3	33.58 ± 0.76
x1 = 1	1.123 ± 0.011	1021.96 ± 8.2	40.25 ± 0.91
